This passage reports IC50 results from ChEMBL document CHEMBL3392926, “Antiprotozoal Activity Profiling of Approved Drugs: A Starting Point toward Drug Repositioning”.

One assay relates to Trypanosoma cruzi. The experiment in a line: microbe, parasite or virus in culture. The class given is functional, organism-based, Tulahuen C4 (LacZ). The following applies: Trypanosoma cruzi, Tulahuen C4 (LacZ), 96 h.
Assay [1] in a line: cells. The class given is functional, cell-based. The following applies: Rattus norvegicus, L6, 72 h.
Description: DNDI: Cytotoxicity in Vitro, 72 hour, in rat skeletal myoblast cells
A short description of assay [2]: cells. The following applies: Mus musculus, NMRI, BalbC or CD1 mice, Macrophage, 96 h. The class given is functional, cell-based.
Description: DNDI: Cytotoxicity in Vitro, 96 hour, in mouse macrophages (infected-amastigotes)
The test system of assay [3] is Trypanosoma brucei rhodesiense. The experiment in a line: microbe, parasite or virus in culture. The class given is functional, organism-based, STIB 900. The following applies: Trypanosoma brucei, STIB 900, 72 h.
Description: DNDI: HAT in Vitro, 72 hour
Assay [4] relates to Leishmania donovani. The experiment in a line: microbe, parasite or virus in culture. The class given is functional, organism-based, MHOM/ET/67/L82. The following applies: Leishmania donovani, MHOM/ET/67/L82, 72 h.
Description: DNDI: Leish (axenic) in Vitro, 72 hour
The test system of assay [5] is Leishmania donovani. The experiment in a line: microbe, parasite or virus in culture. The following applies: Leishmania donovani, MHOM/ET/67/L82, 96 h. The class given is functional, organism-based, MHOM/ET/67/L82.
Description: DNDI: Leish (macro) in Vitro, 96 hour
The next assay relates to Plasmodium falciparum. The experiment in a line: microbe, parasite or virus in culture. The following applies: Plasmodium falciparum, K1, 72 h. The class given is functional, organism-based, K1.

The structures appear in SMILES notation. pIC50: −log10 of the molar value.

Description for Plasmodium falciparum: DNDI: Malaria in Vitro, 72 hour
Description for Trypanosoma cruzi: DNDI: Chagas in Vitro, 96 hour

A word on the pIC50: it is the negative decadic logarithm of the IC50, by convention in mol/L. With `COC(=O)N[C@H](C(=O)N[C@@H](Cc1ccccc1)[C@@H](O)CN(Cc1ccc(-c2ccccn2)cc1)NC(=O)[C@@H](NC(=O)OC)C(C)(C)C)C(C)(C)C` [ATAZANAVIR], the negative-log IC50 (pIC50) was 4.48 with Trypanosoma cruzi; 4.33 in “cells [1]”; under 4.43 in the assay “cells [2]”; 4.89 in assay [3]; 4.62 in the assay on Leishmania donovani [4]; under 4.43 in the assay on Leishmania donovani [5]. Besides, the pIC50 with Plasmodium falciparum is 5.10.
Consider `CN(C)c1ccc(O)c2c1C[C@H]1C[C@H]3[C@H](N(C)C)C(O)=C(C(N)=O)C(=O)[C@@]3(O)C(O)=C1C2=O` [MINOCYCLINE], for which the pIC50 with Trypanosoma cruzi was 4.65; in “cells [1]”, 5.03; in “cells [2]”, under 4.66; in assay [3], 4.44; in the assay with Leishmania donovani [4], 4.34; in the assay with Leishmania donovani [5] it was under 4.66. Also, in the assay with Plasmodium falciparum, the pIC50 is 5.45.
On to `CC(C)(C)NC(=O)[C@@H]1CN(Cc2cccnc2)CCN1C[C@@H](O)C[C@@H](Cc1ccccc1)C(=O)N[C@H]1c2ccccc2C[C@H]1O`, for which the pIC50 with Trypanosoma cruzi is 4.03; in the assay “cells [1]” it was under 3.85; in the assay “cells [2]”, under 4.37; in assay [3], 4.32; in the assay on Leishmania donovani [4] it was under 3.85; in the assay with Leishmania donovani [5], under 4.37. The compound further gave a pIC50 with Plasmodium falciparum of 5.22.
For the compound `COC1=CC(=O)C[C@@H](C)[C@]12Oc1c(Cl)c(OC)cc(OC)c1C2=O` [GRISEOFULVIN], the pIC50 in the assay with Trypanosoma cruzi was 4.06; in “cells [1]”, 4.69; in the assay “cells [2]”, under 4.07; in assay [3] it was 4.40; with Leishmania donovani [4], 4.06; in the assay on Leishmania donovani [5], under 4.07. In addition, the pIC50 in the assay on Plasmodium falciparum was 4.12.
Regarding `O[C@@H](c1cc(C(F)(F)F)nc2c(C(F)(F)F)cccc12)[C@H]1CCCCN1` [(S,R)-MEFLOQUINE], the pIC50 in the assay with Trypanosoma cruzi is 5.35; in “cells [1]”, 5.49; in the assay “cells [2]”, 5.14; in assay [3], 6.28; in the assay with Leishmania donovani [4], 4.41; in the assay with Leishmania donovani [5], 5.62. The same compound showed a negative logarithm of the IC50 (pIC50) in the assay on Plasmodium falciparum of 8.62.
In the case of `O=C(Nc1ccc([N+](=O)[O-])cc1Cl)c1cc(Cl)ccc1O` [NICLOSAMIDE], the negative logarithm of the IC50 (pIC50) in the assay on Trypanosoma cruzi was 5.60; in the assay “cells [1]”, 5.64; in “cells [2]”, 6.00; in assay [3], 5.78; in the assay on Leishmania donovani [4] it was 6.82; in the assay on Leishmania donovani [5] it was under 6.51. This compound showed a pIC50 with Plasmodium falciparum of 5.94.
For the compound `c1ccc(-c2ccc(C(c3ccccc3)n3ccnc3)cc2)cc1` (stereo not drawn) [BIFONAZOLE], the pIC50 in the assay with Trypanosoma cruzi was 8.52; in the assay “cells [1]”, 4.41; in the assay “cells [2]”, under 4.49; in assay [3], 4.57; with Leishmania donovani [4], 5.26; with Leishmania donovani [5], under 4.49. In addition, the pIC50 in the assay on Plasmodium falciparum was 5.50.
Regarding `CO[C@H]1/C=C/O[C@]2(C)Oc3c(C)c(O)c4c(O)c(c5c(nc6cc(C)ccn65)c4c3C2=O)NC(=O)/C(C)=C\C=C\[C@H](C)[C@H](O)[C@@H](C)[C@@H](O)[C@H](C)[C@H](OC(C)=O)[C@H]1C`, the negative logarithm of the IC50 (pIC50) is 4.40 in the assay on Trypanosoma cruzi; 4.06 in “cells [1]”; under 4.42 in the assay “cells [2]”; 4.77 in assay [3]; 4.82 in the assay with Leishmania donovani [4]; under 4.42 with Leishmania donovani [5]. The pIC50 with Plasmodium falciparum is 6.04.
Consider `Cc1c(O)cccc1C(=O)N[C@@H](CSc1ccccc1)[C@H](O)CN1C[C@H]2CCCC[C@H]2C[C@H]1C(=O)NC(C)(C)C`, for which the negative logarithm of the IC50 (pIC50) was 4.99 with Trypanosoma cruzi; 4.92 in “cells [1]”; under 4.28 in “cells [2]”; 4.69 in assay [3]; 5.02 in the assay with Leishmania donovani [4]; 4.69 with Leishmania donovani [5]. In addition, in the assay with Plasmodium falciparum, the pIC50 was 4.98.
As for `Cc1c(C)c2c(c(C)c1O)CCC(C)(COc1ccc(CC3SC(=O)NC3=O)cc1)O2` (stereo not drawn) [TROGLITAZONE], the negative-log IC50 (pIC50) is 4.49 in the assay on Trypanosoma cruzi; 4.09 in “cells [1]”; under 4.17 in “cells [2]”; 4.23 in assay [3]; 5.37 with Leishmania donovani [4]; under 4.17 in the assay with Leishmania donovani [5]. This compound also showed a pIC50 in the assay with Plasmodium falciparum of 5.14.
As for `C[C@H]1[C@@H](OC(=O)CCC(=O)O)O[C@@H]2O[C@]3(C)CC[C@H]4[C@H](C)CC[C@@H]1[C@@]24OO3`, the pIC50 with Trypanosoma cruzi is 5.05; in the assay “cells [1]”, 6.11; in “cells [2]”, under 5.11; in assay [3], 4.78; in the assay with Leishmania donovani [4], 6.46; with Leishmania donovani [5], under 5.11. Moreover, in the assay with Plasmodium falciparum, the negative logarithm of the IC50 (pIC50) was 8.52.
For the compound `CO[C@H]1/C=C/O[C@@]2(C)Oc3c(C)c(O)c4c(O)c(cc(O)c4c3C2=O)NC(=O)/C(C)=C\C=C\[C@H](C)[C@H](O)[C@@H](C)[C@@H](O)[C@@H](C)[C@H](OC(C)=O)[C@@H]1C` [RIFAMYCIN], the negative logarithm of the IC50 (pIC50) with Trypanosoma cruzi was 4.30; in the assay “cells [1]”, 4.80; in the assay “cells [2]” it was 4.38; in assay [3] it was 6.00; with Leishmania donovani [4] it was 5.82; in the assay with Leishmania donovani [5] it was under 4.86. The compound further had a pIC50 in the assay on Plasmodium falciparum of 6.26.
Turning to `CN1CC(=O)N2[C@H](c3ccc4c(c3)OCO4)c3[nH]c4ccccc4c3C[C@@H]2C1=O`, the pIC50 was 5.07 in the assay with Trypanosoma cruzi; 3.66 in “cells [1]”; under 4.11 in “cells [2]”; 4.01 in assay [3]; 4.40 in the assay on Leishmania donovani [4]; under 4.11 in the assay on Leishmania donovani [5]. Besides, the pIC50 in the assay with Plasmodium falciparum is under 4.89.
On to `CCN(CCCCOC(=O)c1ccc(OC)c(OC)c1)C(C)Cc1ccc(OC)cc1` (stereo not drawn) [MEBEVERINE], for which the pIC50 with Trypanosoma cruzi was 5.41; in the assay “cells [1]” it was 4.15; in the assay “cells [2]”, under 4.16; in assay [3] it was 4.27; with Leishmania donovani [4], under 3.68; in the assay on Leishmania donovani [5], 4.26. The pIC50 with Plasmodium falciparum was 5.76.
In the case of `Cc1cccc(C)c1OCC(=O)N[C@@H](Cc1ccccc1)[C@@H](O)C[C@H](Cc1ccccc1)NC(=O)[C@H](C(C)C)N1CCCNC1=O` [LOPINAVIR], the negative logarithm of the IC50 (pIC50) in the assay on Trypanosoma cruzi was 4.81; in “cells [1]”, 4.72; in “cells [2]”, under 4.32; in assay [3], 4.97; in the assay with Leishmania donovani [4], 4.93; in the assay with Leishmania donovani [5] it was under 4.32. In the assay on Plasmodium falciparum, this compound showed a pIC50 of 5.72.
Take `CCC[C@@H]1C[C@@H](C(=O)N[C@H]([C@@H]2O[C@H](SC)[C@H](O)[C@@H](O)[C@H]2O)[C@@H](C)O)N(C)C1`: the negative logarithm of the IC50 (pIC50) was under 3.65 in the assay on Trypanosoma cruzi; under 3.65 in “cells [1]”; under 4.13 in the assay “cells [2]”; under 3.65 in assay [3]; under 3.65 in the assay with Leishmania donovani [4]; under 4.13 in the assay with Leishmania donovani [5]. The pIC50 with Plasmodium falciparum is 5.15.
As for `C[C@@H](c1ncncc1F)[C@](O)(Cn1cncn1)c1ccc(F)cc1F` [VORICONAZOLE], the pIC50 with Trypanosoma cruzi was 4.95; in “cells [1]”, 3.71; in “cells [2]”, under 4.07; in assay [3], under 3.54; with Leishmania donovani [4], under 3.54; in the assay with Leishmania donovani [5] it was under 4.07. In addition, the pIC50 with Plasmodium falciparum is under 3.84.
As for `CO[C@H]1/C=C/O[C@@]2(C)Oc3c(C)c(O)c4c(O)c(c(/C=N/N5CCN(C)CC5)c(O)c4c3C2=O)NC(=O)/C(C)=C\C=C\[C@H](C)[C@H](O)[C@@H](C)[C@@H](O)[C@H](C)[C@H](OC(C)=O)[C@H]1C`, the pIC50 was under 3.96 in the assay on Trypanosoma cruzi; 4.12 in “cells [1]”; under 4.44 in the assay “cells [2]”; 4.78 in assay [3]; 5.82 with Leishmania donovani [4]; under 4.44 with Leishmania donovani [5]. In the assay with Plasmodium falciparum, this compound gave a negative logarithm of the IC50 (pIC50) of 7.00.
Turning to `CN(C)CCCN1c2ccccc2Sc2ccccc21` [PROMAZINE], the pIC50 in the assay with Trypanosoma cruzi is 4.31; in “cells [1]”, 4.52; in the assay “cells [2]”, under 4.45; in assay [3] it was 5.67; in the assay on Leishmania donovani [4], under 3.50; with Leishmania donovani [5] it was under 4.45. This compound gave a pIC50 in the assay with Plasmodium falciparum of 6.31.
Consider `CC[C@@H]1OC(=O)[C@@H](C)[C@H](O[C@H]2C[C@@](C)(OC)[C@@H](O)[C@H](C)O2)[C@@H](C)[C@H](O[C@H]2O[C@@H](C)C[C@@H](N(C)C)[C@@H]2O)[C@@](C)(O)C[C@H](C)C(=O)[C@@H](C)[C@H](O)[C@@]1(C)O`, for which the pIC50 in the assay with Trypanosoma cruzi was 3.94; in “cells [1]” it was 4.04; in the assay “cells [2]”, under 4.40; in assay [3], 4.14; in the assay on Leishmania donovani [4], under 3.88; with Leishmania donovani [5] it was under 4.40. The pIC50 in the assay with Plasmodium falciparum was 5.00.
Consider `Fc1ccc([C@@H]2CCNC[C@H]2COc2ccc3c(c2)OCO3)cc1` [PAROXETINE], for which the pIC50 was 4.84 in the assay with Trypanosoma cruzi; 4.86 in “cells [1]”; 4.52 in the assay “cells [2]”; 5.95 in assay [3]; under 3.56 with Leishmania donovani [4]; under 5.04 in the assay with Leishmania donovani [5]. The pIC50 with Plasmodium falciparum was 5.03.
Turning to `Cc1cccc(N(C)C(=S)Oc2ccc3ccccc3c2)c1` [TOLNAFTATE], the pIC50 in the assay with Trypanosoma cruzi is 4.70; in the assay “cells [1]”, 4.07; in “cells [2]”, under 4.01; in assay [3], 4.16; with Leishmania donovani [4] it was 5.36; in the assay on Leishmania donovani [5] it was 4.30. The same compound had a pIC50 in the assay with Plasmodium falciparum of 4.72.
Consider `COc1cc(C)c2c(Oc3cccc(C(F)(F)F)c3)c(OC)cc(N[C@H](C)CCCN)c2n1`, for which the pIC50 is 5.21 in the assay with Trypanosoma cruzi; 5.26 in “cells [1]”; 5.19 in “cells [2]”; 5.85 in assay [3]; 4.75 with Leishmania donovani [4]; under 5.67 in the assay with Leishmania donovani [5]. This compound had a pIC50 with Plasmodium falciparum of 6.57.
As for `O=C(N/N=C/c1ccc([N+](=O)[O-])o1)c1ccc(O)cc1` [NIFUROXAZIDE], the pIC50 in the assay on Trypanosoma cruzi was 6.64; in the assay “cells [1]”, 4.91; in “cells [2]”, 4.44; in assay [3] it was 7.52; in the assay with Leishmania donovani [4], 5.55; in the assay with Leishmania donovani [5] it was under 4.96. Besides, the pIC50 with Plasmodium falciparum is 5.11.
